{
  "source": "ChEMBL document CHEMBL3132802",
  "about": "“Azole derivatives as novel non-iron-chelating inhibitors of prolyl hydroxylase 3 for HIF-1 activation” (Medchemcomm, 2013)",
  "note": "pIC50: −log10 of the molar value. Active and inactive are the calls of the source. The rule behind the calls is not given here.",
  "data": [
    {"system": "NCI-H446", "assay": "Effect on HIF1alpha mRNA expression in human NCI-H446 cells after 12 hrs by RT-PCR analysis", "format": "functional, cell-based", "conditions": "not given", "values": [
      {"smiles": "c1ccc2[nH]c(CCn3nnc4ccccc43)nc2c1", "Activity": "inactive"},
      {"smiles": "O=C(O)CCn1ccnc1", "Activity": "inactive"},
      {"smiles": "O=C(O)CCn1nnc2ccccc21", "Activity": "inactive"},
      {"smiles": "c1ccc2[nH]c(CCn3cncn3)nc2c1", "Activity": "inactive"},
      {"smiles": "O=C(O)CCn1cncn1", "Activity": "inactive"},
      {"smiles": "O=C(O)CCn1cnc2ccccc21", "Activity": "inactive"}
    ]},
    {"system": "NCI-H446", "assay": "Cytotoxicity against human NCI-H446 cells assessed as proliferation rate up to 200 uM after 24 hrs by MTT assay", "format": "cell-based", "conditions": "nci-h446, 24 h", "units": {"Activity": "%"}, "values": [
      {"smiles": "c1ccc2[nH]c(CCn3cncn3)nc2c1", "Activity": "> 80"},
      {"smiles": "O=C(O)CCn1cncn1", "Activity": "> 80"},
      {"smiles": "O=C(O)CCn1cnc2ccccc21", "Activity": "> 80"}
    ]},
    {"system": "not listed separately", "assay": "Cytotoxicity against human NCI-H446 cells assessed as cell survival up to 200 uM after 24 hrs by MTT assay", "format": "cell-based", "conditions": "read-out: Survival", "units": {"viability at 24 h": "%"}, "values": [
      {"smiles": "c1ccc2[nH]c(CCn3nnc4ccccc43)nc2c1", "viability at 24 h": "> 90"},
      {"smiles": "O=C(O)CCn1ccnc1", "viability at 24 h": "> 90"},
      {"smiles": "O=C(O)CCn1nnc2ccccc21", "viability at 24 h": "> 90"}
    ]},
    {"molecular_target": "Prolyl hydroxylase EGLN3 (Homo sapiens, UniProt Q9H6Z9)", "sequence (Q9H6Z9 whole entry)": "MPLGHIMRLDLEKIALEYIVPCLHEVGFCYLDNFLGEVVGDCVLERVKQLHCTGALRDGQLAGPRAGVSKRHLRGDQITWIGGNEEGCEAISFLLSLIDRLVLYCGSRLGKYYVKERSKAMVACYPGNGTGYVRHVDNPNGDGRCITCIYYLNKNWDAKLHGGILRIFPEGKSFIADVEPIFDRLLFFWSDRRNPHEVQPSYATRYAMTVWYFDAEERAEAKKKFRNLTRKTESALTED", "assay": "Inhibition of recombinant human PHD3 expressed in Escherichia coli using HIF19 peptide as substrate by fluorescence emission spectroscopy", "conditions": "not given", "values": [
      {"smiles": "c1ccc2[nH]cnc2c1", "note": "[BENZIMIDAZOLE]", "pIC50": "< 4.00"},
      {"smiles": "c1ccc2[nH]nnc2c1", "note": "[BENZOTRIAZOLE]", "pIC50": "< 4.00"}
    ]}
  ]
}
